Source: US20110237600A1, “COMPOUNDS FOR IMPROVING LEARNING AND MEMORY” (AMNESTIX, INC., priority 2008, published 2011)

Experiments:
[1] = system: undifferentiated PC12 cells; conditions: Zhang et al., Cell Mol Biol Lett., 2006; cited from earlier work
AURKC = molecular target: T1, AURKC (Homo sapiens, UniProt Q9UQB9); experiment: KinomeScan active-site dependent competition binding assay; conditions: 10 μM concentration
T1 construct: purchased Ambit
Description: (§1) Active-site dependent competition binding assays can be performed with hundreds of known kinases in parallel (Fabian et al., Nat Biotechnol. 2005, 23, 329; Karaman et al., Nat Biotechnol. 2008, 26, 127) in order to determine how compounds bind to both intended and unintended kinases. Such methods allow the assessment of the specificity of a kinase inhibitor.
(§2) Based on a competition binding assay that quantitatively measures the ability of a test compound to compete with an immobilized, active-site directed ligand it is possible to scan the competitive effect of the test compound for a broad variety of kinases in parallel (KinomeScan, Ambit, San Diego, Calif., USA; Fabian et al., Nat Biotechnol. 2005, 23, 329). Based on this analysis it is possible to assess the inhibitory specificity of a test compound. The assay was performed with 1-(8-cyclohexyl-5 isoquinoline-sulfonyl) 2-methyl-piperazine in 10 μM concentration. As result of the assay one obtains the percentage of competition of the active-site directed ligand for each of the over 400 kinases of the test due to the incubation with the test compounds. FIG. 3 lists the kinases ranked according to their binding to 1-(8-cyclohexyl-5 isoquinoline-sulfonyl) 2-methyl-piperazine (compound A). Strong binding (more than 50%) of 1-(8-cyclohexyl-5 isoquinoline-sulfonyl) 2-methyl-piperazine is found only for the kinases CSNK1E, CSNK1A1L, CSNK1D, MERTK, SLK, IRAK1, STK10, MAPK12, PHKG2, MAPK11, MET, AXL, STK32B, AURKC, CLK3, RPS6KA6, PDGFRB, KDR, CDK2.

AXL = molecular target: T2, AXL (Homo sapiens, UniProt P30530); experiment: as above; conditions: 10 μM concentration
T2 construct: purchased Ambit
Description: as §1, §2

CDK2 = molecular target: T3, CDK2 (Homo sapiens, UniProt P24941); experiment: as above; conditions: 10 μM concentration
T3 construct: purchased Ambit
Description: as §1, §2

CLK3 = molecular target: T4, CLK3 (Homo sapiens, UniProt P49761); experiment: as above; conditions: 10 μM concentration
T4 construct: purchased Ambit
Description: as §1, §2

CSNK1A1L = molecular target: T5, CSNK1A1L (Homo sapiens, UniProt Q8N752); experiment: as above; conditions: 10 μM concentration
T5 construct: purchased Ambit
Description: as §1, §2

CSNK1D = molecular target: T6, CSNK1D (Homo sapiens, UniProt P48730); experiment: as above; conditions: 10 μM concentration
T6 construct: purchased Ambit
Description: as §1, §2

CSNK1E = molecular target: T7, CSNK1E (Homo sapiens, UniProt P49674); experiment: as above; conditions: 10 μM concentration
T7 construct: purchased Ambit
Description: as §1, §2

IRAK1 = molecular target: T8, IRAK1 (Homo sapiens, UniProt P51617); experiment: as above; conditions: 10 μM concentration
T8 construct: purchased Ambit
Description: as §1, §2

KDR = molecular target: T9, KDR (Homo sapiens, UniProt P35968); experiment: as above; conditions: 10 μM concentration
T9 construct: purchased Ambit
Description: as §1, §2

MAPK11 = molecular target: T10, MAPK11 (Homo sapiens, UniProt Q15759); experiment: as above; conditions: 10 μM concentration
T10 construct: purchased Ambit
Description: as §1, §2

MAPK12 = molecular target: T11, MAPK12 (Homo sapiens, UniProt P53778); experiment: as above; conditions: 10 μM concentration
T11 construct: purchased Ambit
Description: as §1, §2

MERTK = molecular target: T12, MERTK (Homo sapiens, UniProt Q12866); experiment: as above; conditions: 10 μM concentration
T12 construct: purchased Ambit
Description: as §1, §2

MET = molecular target: T13, MET (Homo sapiens, UniProt P08581); experiment: as above; conditions: 10 μM concentration
T13 construct: purchased Ambit
Description: as §1, §2

PDGFRB = molecular target: T14, PDGFRB (Homo sapiens, UniProt P09619); experiment: as above; conditions: 10 μM concentration
T14 construct: purchased Ambit
Description: as §1, §2

PHKG2 = molecular target: T15, PHKG2 (Homo sapiens, UniProt P15735); experiment: as above; conditions: 10 μM concentration
T15 construct: purchased Ambit
Description: as §1, §2

RPS6KA6 = molecular target: T16, RPS6KA6 (Homo sapiens, UniProt Q9UK32); experiment: as above; conditions: 10 μM concentration
T16 construct: purchased Ambit
Description: as §1, §2

SLK = molecular target: T17, SLK (Homo sapiens, UniProt Q9H2G2); experiment: as above; conditions: 10 μM concentration
T17 construct: purchased Ambit
Description: as §1, §2

STK10 = molecular target: T18, STK10 (Homo sapiens, UniProt O94804); experiment: as above; conditions: 10 μM concentration
T18 construct: purchased Ambit
Description: as §1, §2

STK32B = molecular target: T19, STK32B (Homo sapiens, UniProt Q9NY57); experiment: as above; conditions: 10 μM concentration
T19 construct: purchased Ambit
Description: as §1, §2

over 400 kinases = experiment: Kinase specificity analysis (KinomeScan panel); conditions: 10 μM concentration; strong binding (more than 50%) for 19 kinases only
Description: as §1
as §2, with “Strong binding (more than 50%) of 1-(8-cyclohexyl-5 isoquinoline-sulfonyl) 2-methyl-piperazine is found only for the kinases CSNK1E, CSNK1A1L, CSNK1D, MERTK, SLK, IRAK1, STK10, MAPK12, PHKG2, MAPK11, MET, AXL, STK32B, AURKC, CLK3, RPS6KA6, PDGFRB, KDR, CDK2.” left out

[2] = system: hippocampal slices from 3-4 week-old Wistar rats; experiment: In vitro LTP analysis, theta burst stimulation, fEPSP slope recording; assay type: cell-based, rat
Description: The effect of long-term potentiation (LTP) which can be measured in vitro, is generally thought to correlate with memory. Stimulation of an afferent neuron or neuronal cell area results in membrane potentials of a downstream positioned neuron or neuronal cell area. Such membrane potentials are long-term potentiated at least over hours after stimulating the afferent neurons e.g. with a theta burst paradigm. Therefore, LTP is regarded as memory on cellular level. Electrophysiological LTP measurements on neurons incubated with a test compound in comparison to sham incubated neurons can be used to assess the compounds' potential to enhance memory (See generally Cooke and Bliss, Brain, 2006, 129 (1659), which is hereby incorporated by reference).
LTP is thought to be suitable as in vitro model for the assessment of memory function. Therefore, it allows analysis of test compounds, e.g. the compounds of the invention, e.g. 1-(8-cyclohexyl-5 isoquinoline-sulfonyl) 2-methyl-piperazine for memory enhancing potential. Experiments were done on hippocampal slices from 3-4 week-old Wistar rats. The rats were sacrificed by decapitation without prior anesthesia. […] A platinum/tungsten electrode was then lowered into the CA1 dendritic layer under visual control until stable amplitudes of the recorded fEPSP were achieved. […] Then, the test compound was washed in for a period of 30 min during which stimulation was continued at 0.05 Hz and fEPSPs were continuously recorded. […] All slices recorded simultaneously were treated with the same time schedule. From the recorded data, the amplitudes of the evoked fEPSP were automatically calculated by the recording software (Synchroslice data acquisition and analysis, LRE) as the negative peak of the postsynaptic signal with respect to baseline and plotted online. All recorded signals were digitally stored for later offline analysis, in particular for fEPSP negative slope calculation. From the stored single sweeps, the slope was calculated between 30% and 70% of the maximum fEPSP amplitude. […]

T14 sequence (P09619 33-1106): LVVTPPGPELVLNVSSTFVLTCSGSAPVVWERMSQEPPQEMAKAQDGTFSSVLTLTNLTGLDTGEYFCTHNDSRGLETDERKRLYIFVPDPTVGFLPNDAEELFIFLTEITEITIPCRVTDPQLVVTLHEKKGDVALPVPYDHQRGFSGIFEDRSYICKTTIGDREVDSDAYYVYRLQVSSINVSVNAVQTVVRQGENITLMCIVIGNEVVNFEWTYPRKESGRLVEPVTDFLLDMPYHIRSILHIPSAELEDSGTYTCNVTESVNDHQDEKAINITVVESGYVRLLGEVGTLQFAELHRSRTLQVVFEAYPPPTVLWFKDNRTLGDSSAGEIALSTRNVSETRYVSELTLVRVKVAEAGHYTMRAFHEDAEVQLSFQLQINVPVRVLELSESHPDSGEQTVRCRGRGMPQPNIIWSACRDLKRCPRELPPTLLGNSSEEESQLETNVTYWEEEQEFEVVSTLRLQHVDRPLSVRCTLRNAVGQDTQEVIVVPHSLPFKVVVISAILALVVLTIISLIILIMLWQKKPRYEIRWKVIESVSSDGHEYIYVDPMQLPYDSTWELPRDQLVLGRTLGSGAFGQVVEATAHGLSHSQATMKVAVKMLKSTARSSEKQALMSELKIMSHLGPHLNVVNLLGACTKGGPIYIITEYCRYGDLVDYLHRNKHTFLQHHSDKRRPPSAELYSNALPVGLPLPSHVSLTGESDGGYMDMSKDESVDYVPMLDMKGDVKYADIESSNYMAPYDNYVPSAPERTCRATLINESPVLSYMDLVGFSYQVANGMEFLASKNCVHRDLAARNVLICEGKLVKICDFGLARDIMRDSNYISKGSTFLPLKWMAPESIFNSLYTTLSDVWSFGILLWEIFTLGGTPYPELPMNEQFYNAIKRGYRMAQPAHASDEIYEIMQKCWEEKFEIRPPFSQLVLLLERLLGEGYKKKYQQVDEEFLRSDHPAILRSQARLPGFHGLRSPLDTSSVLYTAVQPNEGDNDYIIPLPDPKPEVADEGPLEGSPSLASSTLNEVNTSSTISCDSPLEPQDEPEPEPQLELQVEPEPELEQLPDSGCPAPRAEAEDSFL
T17 sequence (Q9H2G2 whole entry): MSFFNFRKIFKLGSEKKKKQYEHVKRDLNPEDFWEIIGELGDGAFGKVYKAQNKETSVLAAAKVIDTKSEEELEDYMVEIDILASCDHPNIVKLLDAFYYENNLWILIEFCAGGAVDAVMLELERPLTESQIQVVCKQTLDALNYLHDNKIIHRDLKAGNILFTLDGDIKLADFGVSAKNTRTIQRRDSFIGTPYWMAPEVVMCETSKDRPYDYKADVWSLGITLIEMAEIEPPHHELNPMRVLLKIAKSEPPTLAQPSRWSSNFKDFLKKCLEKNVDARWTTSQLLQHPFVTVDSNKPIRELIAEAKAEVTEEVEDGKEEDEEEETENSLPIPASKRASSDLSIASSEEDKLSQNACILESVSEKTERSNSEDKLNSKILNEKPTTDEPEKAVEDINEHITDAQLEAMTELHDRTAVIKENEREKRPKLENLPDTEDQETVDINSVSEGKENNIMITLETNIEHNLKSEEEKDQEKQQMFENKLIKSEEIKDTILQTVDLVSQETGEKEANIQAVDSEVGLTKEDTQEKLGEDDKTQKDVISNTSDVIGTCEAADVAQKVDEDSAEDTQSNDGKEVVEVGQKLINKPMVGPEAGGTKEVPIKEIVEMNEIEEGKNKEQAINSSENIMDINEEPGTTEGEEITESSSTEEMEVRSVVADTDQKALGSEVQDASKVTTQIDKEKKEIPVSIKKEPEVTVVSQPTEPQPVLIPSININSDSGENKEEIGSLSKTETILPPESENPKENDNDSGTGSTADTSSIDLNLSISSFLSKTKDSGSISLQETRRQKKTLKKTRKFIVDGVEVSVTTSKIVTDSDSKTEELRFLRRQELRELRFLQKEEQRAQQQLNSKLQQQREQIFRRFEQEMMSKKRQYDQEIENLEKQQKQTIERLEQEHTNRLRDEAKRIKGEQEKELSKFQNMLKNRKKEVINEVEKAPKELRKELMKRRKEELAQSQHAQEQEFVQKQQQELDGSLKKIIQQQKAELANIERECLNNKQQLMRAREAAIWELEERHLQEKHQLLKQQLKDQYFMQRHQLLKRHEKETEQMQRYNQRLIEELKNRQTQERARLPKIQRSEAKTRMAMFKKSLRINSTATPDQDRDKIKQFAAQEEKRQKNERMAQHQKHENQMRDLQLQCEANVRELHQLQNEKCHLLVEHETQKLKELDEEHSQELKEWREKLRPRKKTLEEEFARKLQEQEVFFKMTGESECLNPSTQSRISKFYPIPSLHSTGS
T4 sequence (P49761 whole entry): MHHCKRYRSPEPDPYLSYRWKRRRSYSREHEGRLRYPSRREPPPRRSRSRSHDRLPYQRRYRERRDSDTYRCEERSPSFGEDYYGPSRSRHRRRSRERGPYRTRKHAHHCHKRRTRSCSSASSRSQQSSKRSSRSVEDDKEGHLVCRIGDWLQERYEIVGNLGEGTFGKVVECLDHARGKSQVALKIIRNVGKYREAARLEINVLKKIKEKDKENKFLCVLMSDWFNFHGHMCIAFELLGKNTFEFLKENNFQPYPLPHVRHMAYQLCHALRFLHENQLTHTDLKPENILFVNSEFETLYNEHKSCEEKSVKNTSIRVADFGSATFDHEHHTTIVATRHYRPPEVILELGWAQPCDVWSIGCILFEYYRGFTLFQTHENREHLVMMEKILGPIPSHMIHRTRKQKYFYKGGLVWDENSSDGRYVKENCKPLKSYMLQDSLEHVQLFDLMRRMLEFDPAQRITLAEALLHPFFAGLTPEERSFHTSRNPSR
T13 sequence (P08581 25-1390): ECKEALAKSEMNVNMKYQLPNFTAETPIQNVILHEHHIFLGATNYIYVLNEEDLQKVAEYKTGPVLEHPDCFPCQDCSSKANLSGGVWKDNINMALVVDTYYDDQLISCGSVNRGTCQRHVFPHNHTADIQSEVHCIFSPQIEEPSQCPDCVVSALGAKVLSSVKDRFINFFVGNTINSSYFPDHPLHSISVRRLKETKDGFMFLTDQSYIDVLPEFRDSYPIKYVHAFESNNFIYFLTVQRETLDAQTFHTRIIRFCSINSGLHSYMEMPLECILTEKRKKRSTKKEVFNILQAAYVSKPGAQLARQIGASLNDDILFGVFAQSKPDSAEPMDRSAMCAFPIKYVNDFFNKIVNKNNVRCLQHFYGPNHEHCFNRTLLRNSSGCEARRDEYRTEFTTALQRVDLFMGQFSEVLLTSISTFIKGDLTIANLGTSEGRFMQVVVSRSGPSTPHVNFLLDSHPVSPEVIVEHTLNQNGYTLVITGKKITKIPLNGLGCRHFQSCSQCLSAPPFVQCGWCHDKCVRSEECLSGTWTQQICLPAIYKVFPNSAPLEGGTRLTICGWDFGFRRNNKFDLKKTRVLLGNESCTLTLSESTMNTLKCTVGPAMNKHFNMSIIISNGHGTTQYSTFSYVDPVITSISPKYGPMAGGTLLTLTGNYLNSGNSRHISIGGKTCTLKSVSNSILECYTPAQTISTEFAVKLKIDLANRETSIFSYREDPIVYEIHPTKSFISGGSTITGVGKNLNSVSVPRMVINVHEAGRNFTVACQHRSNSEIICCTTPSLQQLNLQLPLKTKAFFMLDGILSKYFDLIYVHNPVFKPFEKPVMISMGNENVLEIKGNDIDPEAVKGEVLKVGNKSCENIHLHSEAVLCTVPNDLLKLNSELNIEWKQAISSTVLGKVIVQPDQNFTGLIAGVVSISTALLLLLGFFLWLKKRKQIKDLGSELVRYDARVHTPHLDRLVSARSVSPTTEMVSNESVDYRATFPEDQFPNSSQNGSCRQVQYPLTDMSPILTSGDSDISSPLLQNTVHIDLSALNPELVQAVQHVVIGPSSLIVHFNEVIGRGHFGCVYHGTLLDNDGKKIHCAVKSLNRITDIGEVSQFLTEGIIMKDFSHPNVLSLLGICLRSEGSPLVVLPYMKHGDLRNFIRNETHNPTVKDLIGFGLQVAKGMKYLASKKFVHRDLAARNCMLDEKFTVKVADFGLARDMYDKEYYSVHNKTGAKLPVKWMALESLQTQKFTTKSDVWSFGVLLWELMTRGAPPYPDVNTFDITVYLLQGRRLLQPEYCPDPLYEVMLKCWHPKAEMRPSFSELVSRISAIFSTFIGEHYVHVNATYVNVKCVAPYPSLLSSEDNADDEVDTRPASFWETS
T15 sequence (P15735 whole entry): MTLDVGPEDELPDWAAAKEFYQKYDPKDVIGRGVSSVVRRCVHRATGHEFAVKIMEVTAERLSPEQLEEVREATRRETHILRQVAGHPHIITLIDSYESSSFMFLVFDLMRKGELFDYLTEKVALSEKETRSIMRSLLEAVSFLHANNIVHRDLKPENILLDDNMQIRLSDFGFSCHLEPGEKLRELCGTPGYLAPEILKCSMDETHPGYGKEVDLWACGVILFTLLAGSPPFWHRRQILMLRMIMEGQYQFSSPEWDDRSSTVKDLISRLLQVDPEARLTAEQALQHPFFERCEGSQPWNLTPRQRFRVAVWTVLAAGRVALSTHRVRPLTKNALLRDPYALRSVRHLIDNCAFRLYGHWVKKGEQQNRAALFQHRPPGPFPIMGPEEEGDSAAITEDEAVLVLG
T10 sequence (Q15759 whole entry): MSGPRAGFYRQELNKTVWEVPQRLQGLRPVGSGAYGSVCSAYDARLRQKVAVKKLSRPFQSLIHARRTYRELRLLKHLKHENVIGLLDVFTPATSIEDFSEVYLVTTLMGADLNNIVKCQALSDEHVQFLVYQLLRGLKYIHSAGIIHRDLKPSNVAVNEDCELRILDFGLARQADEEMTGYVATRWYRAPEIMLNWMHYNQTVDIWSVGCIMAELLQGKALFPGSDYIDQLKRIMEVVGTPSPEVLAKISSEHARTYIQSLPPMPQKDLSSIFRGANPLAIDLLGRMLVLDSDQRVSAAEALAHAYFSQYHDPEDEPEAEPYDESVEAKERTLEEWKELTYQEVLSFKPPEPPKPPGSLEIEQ

SMILES: O=S(=O)(c1cccc2cnccc12)N1CCCNCC1 [Fasudil]
- neurite outgrowth [1]: increase neurite outgrowth

SMILES: CC1CNCCN1S(=O)(=O)c1ccc(C2CCCCC2)c2cnccc12 (stereo not drawn) [1-(8-cyclohexyl-5 isoquinoline-sulfonyl) 2-methyl-piperazine]
- binding (percentage of competition of the active-site directed ligand) (AURKC): more than 50%
- binding (percentage of competition of the active-site directed ligand) (AXL): more than 50%
- binding (percentage of competition of the active-site directed ligand) (CDK2): more than 50%
- binding (percentage of competition of the active-site directed ligand) (CLK3): more than 50%
- binding (percentage of competition of the active-site directed ligand) (CSNK1A1L): more than 50%
- binding (percentage of competition of the active-site directed ligand) (CSNK1D): more than 50%
- binding (percentage of competition of the active-site directed ligand) (CSNK1E): more than 50%
- binding (percentage of competition of the active-site directed ligand) (IRAK1): more than 50%
- binding (percentage of competition of the active-site directed ligand) (KDR): more than 50%
- binding (percentage of competition of the active-site directed ligand) (MAPK11): more than 50%
- binding (percentage of competition of the active-site directed ligand) (MAPK12): more than 50%
- binding (percentage of competition of the active-site directed ligand) (MERTK): more than 50%
- binding (percentage of competition of the active-site directed ligand) (MET): more than 50%
- binding (percentage of competition of the active-site directed ligand) (PDGFRB): more than 50%
- binding (percentage of competition of the active-site directed ligand) (PHKG2): more than 50%
- binding (percentage of competition of the active-site directed ligand) (RPS6KA6): more than 50%
- binding (percentage of competition of the active-site directed ligand) (SLK): more than 50%
- binding (percentage of competition of the active-site directed ligand) (STK10): more than 50%
- binding (percentage of competition of the active-site directed ligand) (STK32B): more than 50%
- inhibitory specificity across the kinase panel (over 400 kinases): very selective kinase inhibitor
- increase in EPSP slopes when the compound is removed ([2]; 100 μM concentration): most obvious and very strong
- LTP induction (fEPSP slope) ([2]; compound washed in at increasing concentrations (1 μM, 10 μM and 100 μM), control slices about 140% of pre-stimulus levels): complete block of LTP-induction
- EPSP slopes when the compound is removed ([2]; wash-out 30 min after LTP induction, 1 μM, 10 μM and 100 μM): increase in EPSP slopes
